Results published in patent publication US11311593B2, “Root extracts from plants of the Morus genus and uses of same” (PLANT ADVANCED TECHNOLOGIES PAT, priority 2017, dated 2022).

Experiments:
fungal tyrosinase = test: Anti-tyrosinase inhibiting activity, L-tyrosine as substrate, dopachrome at 475 nm; assay type: biochemical
Experimental: Morus alba plants were cultivated aeroponically for 8 weeks with a 15/10/30 (N/P/K) culture medium and with an electroconductivity in the range 1.0 and 1.2 mS/cm. The roots were chopped, dried, crushed and macerated in pure ethanol in a ratio of 1 mL of ethanol for 20 mg dry matter in accordance with the protocol described in Example 1. The sample was centrifuged at 21000 g for 10 minutes in order to separate the solid material. The anti-tyrosinase inhibiting activity of the supernatant was measured using L-tyrosine as the substrate. Tyrosinase catalyzes the conversion of L-tyrosine to dopaquinone, which is spontaneously converted into dopachrome. This latter absorbs strongly in the visible range of the electromagnetic spectrum (at 475 nm). The activity of the tyrosinase was measured by following the enzymatic conversion of the colorless L-tyrosine into orange dopachrome with the aid of a microplate reader.
The anti-tyrosinase activity of the supernatant was measured by mixing the following components: 150 μL of the solution of L-tyrosine (1.5 mM) in 50 mM sodium phosphate buffer, pH 6.8; 40 μL of supernatant diluted 2- to 800-fold in ethanol was tested as the inhibitor solution. The enzymatic conversion was initialized by adding a volume of 10 μL of fungal tyrosinase (0.2 mg/mL in a 50 mM sodium phosphate buffer, pH 6.8). The “control” experiment was carried out in the same manner, replacing the supernatant with pure ethanol.
Two root extracts of Morus alba were prepared in accordance with the protocol described in Example 1. The measurement of the anti-tyrosinase inhibiting activity was carried out in accordance with the protocol described in Example 2.1 with 40 μL of each of the two extracts diluted 100-fold or 200-fold in pure ethanol.
The measurement of the anti-tyrosinase inhibiting activity was carried out in accordance with the protocol described in Example 2.1.

[1] = test system: collagenase obtained from Clostridium Histolyticum; test: Target Binding affinity test for collagenase; settings: ligands in non-stimulated M. alba root extract; moracenin B = reference ligand
Experimental: A root extract of Morus alba was prepared in accordance with the protocol described in Example 2.1. The Target Binding® method used was that of Example 2.3 which is described in patent application FR 1 670 545. The experimental protocol was as follows:
The target, a 6.25 mg/mL solution of collagenase obtained from Clostridium histolyticum, was prepared by dissolving lyophilized enzyme powder in 50 mM saline phosphate buffer with a pH of 7.5. The sample to be analyzed corresponded to the supernatant of the root extract obtained in accordance with Example 2.1. It could be centrifuged once again before use, at 21000 g for 15 min, in order to remove any traces of solid particles. A reference sample was also prepared by diluting the sample to be analyzed 10-fold in a solution of water and a quarter of the volume of acetonitrile.
1. Preconditioning step—Wells with a filtering membrane were preconditioned with a volume of 500 μL of a saline phosphate buffer which was passed through the membrane by centrifuging at 14000 g for 60 seconds.
2. Binding step—A volume of 92.5 μL of the solution obtained from the pretreatment step was mixed with 7.5 μL of the sample to be analyzed for 10 min in a plastic Eppendorf tube.
3. Washing step—The mixture of the enzyme and the sample to be analyzed was deposited in a well that had been preconditioned in the preconditioning step, then centrifuged at 14000 g until most of the solvent had been eliminated. The enzyme-ligand complexes remained on the surface of the filter membrane, then were re-suspended in a volume of 100 μL of the same saline phosphate buffer solution and centrifuged at 14000 g until the solvent had been eliminated. This procedure was repeated three times and eliminated all of the compounds that were not bound to the enzyme. 4. Separation step—The enzyme-ligand complexes retained in the filter were re-suspended in a volume of 10 μL of ultra-pure water then mixed with a volume of 30 μL of acetonitrile in order to denature and precipitate the enzyme and, at the same time, to liberate the ligands. The mixture was centrifuged at 21000 g for 10 min in order to separate the precipitate from the supernatant. 5. Analysis step—Said supernatant was analyzed by liquid phase chromatography coupled to a mass spectrometer. The reference sample was also analyzed in the same manner, using the same analytical conditions.
(§1) The UPLC-MS analysis was carried out in accordance with the protocol described in Example 1.

hyaluronidase = test: Target Binding affinity test for hyaluronidase; settings: ligands in non-stimulated M. alba root extract; moracenin B = reference ligand
Experimental: A root extract of Morus Alba was prepared in accordance with the protocol described in Example 2.1. The Target Binding® method used was that of Example 2.3 which is described in patent application FR 1 670 545. The experimental protocol was as follows: The target, a 5 mg/mL solution of hyaluronidase, was prepared by dissolving powdered lyophilized enzyme in 50 mM sodium phosphate, with a pH of 7.0. The extract corresponded to the supernatant obtained in accordance with Example 2.1. It could optionally be centrifuged once again before use, at 21000 g for 15 min, in order to eliminate the solid particles before use. A reference sample was also prepared by diluting the sample 10-fold in a solution of water and a quarter of the volume of acetonitrile.
1. Preconditioning step—Wells with a filtering membrane were preconditioned with a volume of 500 μL of a solution of 50 mM sodium phosphate, at a pH of 7.0 which was passed through the membrane by centrifuging at 14000 g for 60 seconds.
2. Binding step—The hyaluronidase preparation (5 mg/mL) was mixed with 7.5 μL of the root extract for 5 min in a plastic Eppendorf tube.
3. Washing step—the mixture of the enzyme and the root extract was deposited in a well that had been preconditioned in the preconditioning step, then centrifuged at 14000 g until most of the solvent had been eliminated. The enzyme-ligand complexes remained on the surface of the membrane of the filter then were re-suspended in a volume of 100 μL of the same solution of 50 mM sodium phosphate at a pH of 7.0, and centrifuged at 14000 g until the solvent had been eliminated. This procedure was repeated three times and eliminated all of the compounds that were not bound to the enzyme. 4. Separation step—The enzyme-ligand complexes retained in the filter were re-suspended in a volume of 10 μL of ultra-pure water then mixed with a volume of 40 μL of acetonitrile in order to denature and precipitate the enzyme and at the same time to liberate the ligands. The mixture was centrifuged at 21000 g for 10 min in order to separate the precipitate from the supernatant. 5. Analysis step—Said supernatant was analyzed by liquid phase chromatography coupled to a mass spectrometer, also known by the acronym UPLC-MS. The reference sample was also analyzed in the same manner, using the same analytical conditions.
as §1

Structure (SMILES) | % inhibition of tyrosinase (fungal tyrosinase; purified compound, 2.5 μM) [%] | % inhibition of tyrosinase (fungal tyrosinase; purified compound, 5 μM) [%] | % inhibition of tyrosinase (fungal tyrosinase; purified compound, 20 μM) [%] | Relative affinity (RA) for collagenase [1] | Relative affinity (RA) for hyaluronidase (hyaluronidase) | rank of tyrosinase inhibiting activity among the 4 purified compounds (in words) (fungal tyrosinase; 2.5, 5 and 20 μM) | inhibition of tyrosinase (fungal tyrosinase; purified compound, 3.2 mg/L) [%]
CC(C)=CCc1c(O)ccc(C(=O)[C@@H]2CC(C)=C[C@H](c3c(O)cc(O)c4c(=O)c(CC=C(C)C)c(-c5ccc(O)cc5O)oc34)[C@H]2c2ccc(O)cc2O)c1O [Moracenin A, moracenin A] | 18.9 | 27.7 | 59.0 | 1.1 | 1.9 | – | –
CC(C)=CCc1c(-c2ccc(O)cc2O)oc2c([C@H]3C=C(C)C[C@H](C(=O)c4ccc(O)cc4O)[C@@H]3c3ccc(O)cc3O)c(O)cc(O)c2c1=O [Moracenin B, moracenin B] | 22.6 | 33.5 | 69.7 | 1.0 | 1.0 | – | –
CC(C)=CCc1c(O)ccc(C(=O)C2C(c3ccc(O)cc3O)CC3(C)CC2c2c(O)cc(-c4cc5ccc(O)cc5o4)cc2O3)c1O (centres unmarked) [Wittiorumin F, wittiorumin F] | 35.7 | 52.9 | 75.1 | 1.1 | 2.1 | best inhibiting activity | 52.9
